Assay: method code SF-AS, from DOI: 10.1002/chin.198834177
Details: pH 5.6

| logD | Compound |
| --- | --- |
| 0.75 | CC(CC(N)=O)n1nnc2ccccc21 (stereo not given) |
| 3.32 | CCCCC(C(=O)OCC)n1nnc2ccccc21 (stereo not given) |
| 3.63 | c1ccc2nn(C3CCCCC3)nc2c1 |
| 2.64 | CCOCC(=O)CCC(C)n1nnc2ccccc21 (stereo not given) |
| 1.75 | CCCC(C(N)=O)n1nc2ccccc2n1 (stereo not given) |
| 2.82 | CCCC(C(=O)OCC)n1nnc2ccccc21 (stereo not given) |
| 1 | CC(CC(N)=O)n1nc2ccccc2n1 (stereo not given) |
| 0.76 | CC(C)(C(N)=O)n1nnc2ccccc21 |
| 3.11 | c1ccc2c(c1)nnn2C1CCCCC1 |
| 3.38 | CCCC(C(=O)OCC)n1nc2ccccc2n1 (stereo not given) |
| 3.05 | CCOC(=O)CCC(C)n1nc2ccccc2n1 (stereo not given) |
| 2.27 | CCOC(=O)CC(C)n1nnc2ccccc21 (stereo not given) |
| 2.34 | CCOC(=O)C(CC)n1nnc2ccccc21 (stereo not given) |
| 1.87 | CCOC(=O)C(C)n1nnc2ccccc21 (stereo not given) |
| 2.6 | CCOC(=O)C(C)(C)n1nnc2ccccc21 |
| 2.88 | CCOC(=O)C(CC)n1nc2ccccc2n1 (stereo not given) |
| 1.25 | CCC(C(N)=O)n1nc2ccccc2n1 (stereo not given) |
| 1.88 | CCCCC(C(N)=O)n1nnc2ccccc21 (stereo not given) |
| 0.88 | CCC(C(N)=O)n1nnc2ccccc21 (stereo not given) |
| 2.7 | CCOC(=O)CC(C)n1nc2ccccc2n1 (stereo not given) |
| 1.16 | CC(C)(C(N)=O)n1nc2ccccc2n1 |
| 0.35 | CC(C(N)=O)n1nnc2ccccc21 (stereo not given) |
| 1.38 | CCCC(C(N)=O)n1nnc2ccccc21 (stereo not given) |
| 0.86 | CC(C(N)=O)n1nc2ccccc2n1 (stereo not given) |
| 1.35 | CC(CCC(N)=O)n1nc2ccccc2n1 (stereo not given) |
| 2.28 | CCCCC(C(N)=O)n1nc2ccccc2n1 (stereo not given) |
| 2.38 | CCOC(=O)C(C)n1nc2ccccc2n1 (stereo not given) |
| 1.15 | CC(CCC(N)=O)n1nnc2ccccc21 (stereo not given) |
| 2.98 | CCOC(=O)C(C)(C)n1nc2ccccc2n1 |
| 3.88 | CCCCC(C(=O)OCC)n1nc2ccccc2n1 (stereo not given) |
